Columns and labels:
Assay in all cases: relative viability (nuclei count vs DMSO), 5 days (fraction); higher = more cells survive
[1] = compound: O=S(=O)(c1ccccc1)N(CC(F)(F)F)c1ccc(C(O)(C(F)(F)F)C(F)(F)F)cc1 + C[C@@H](Oc1cc(-c2cnn(C3CCNCC3)c2)cnc1N)c1c(Cl)ccc(F)c1Cl [Crizotinib] (partner 1 µM)
How it was run: (§1)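 Lung cancer cell lines, seeded in 1536-well plates, were treated the following day by pin tool with a single drug or with five library-drug doses (not always all listed) in √10 steps on top of a fixed anchor-drug dose. Cells were fixed and nuclei stained in one step after 5 days, and nuclei were counted. Relative viability is the nuclei count for treated wells divided by that for vehicle wells, reported as medians of duplicate plates.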

RO-3306 + OSI-027 = compound: C1=CC2=C(C=CC(=C2)C=C3C(=O)NC(=NCC4=CC=CS4)S3)N=C1 [RO-3306] + COc1cccc2cc(-c3nc([C@H]4CC[C@H](C(=O)O)CC4)n4ncnc(N)c34)[nH]c12 [OSI-027] (partner 0.5 µM)
How it was run: as §1

RO-3306 + Bortezomib = compound: C1=CC2=C(C=CC(=C2)C=C3C(=O)NC(=NCC4=CC=CS4)S3)N=C1 [RO-3306] + CC(C)C[C@H](NC(=O)[C@H](Cc1ccccc1)NC(=O)c1cnccn1)B(O)O [Bortezomib] (partner 0.002 µM)
How it was run: as §1

[2] = compound: O=S(=O)(c1ccccc1)N(CC(F)(F)F)c1ccc(C(O)(C(F)(F)F)C(F)(F)F)cc1 + CCNC(=O)c1noc(-c2cc(C(C)C)c(O)cc2O)c1-c1ccc(CN2CCOCC2)cc1 [Luminespib] (partner 0.01 µM)
How it was run: as §1

[3] = compound: O=S(=O)(c1ccccc1)N(CC(F)(F)F)c1ccc(C(O)(C(F)(F)F)C(F)(F)F)cc1 + C[C@]1(O)C[C@@H](c2nc(-c3ccc4ccc(-c5ccccc5)nc4c3)c3c(N)nccn32)C1 [Linsitinib] (partner 1 µM)
How it was run: as §1

Cell Line | relative viability ([1]; first compound 0.8 µM) | relative viability ([1]; first compound 2.53 µM) | relative viability ([1]; first compound 8 µM) | relative viability (RO-3306 + OSI-027; first compound 0.01 µM) | relative viability (RO-3306 + OSI-027; first compound 0.03162 µM) | relative viability (RO-3306 + OSI-027; first compound 0.1 µM) | relative viability (RO-3306 + OSI-027; first compound 0.3162 µM) | relative viability (RO-3306 + OSI-027; first compound 1 µM) | relative viability (RO-3306 + Bortezomib; first compound 0.01 µM) | relative viability (RO-3306 + Bortezomib; first compound 0.03162 µM) | relative viability (RO-3306 + Bortezomib; first compound 0.1 µM) | relative viability (RO-3306 + Bortezomib; first compound 0.3162 µM) | relative viability (RO-3306 + Bortezomib; first compound 1 µM) | relative viability ([2]; first compound 0.8 µM) | relative viability ([2]; first compound 2.53 µM) | relative viability ([2]; first compound 8 µM) | relative viability ([3]; first compound 0.8 µM) | relative viability ([3]; first compound 2.53 µM) | relative viability ([3]; first compound 8 µM)
ABC-1 | 1.19 | 1.07 | 1.01 | 0.411 | 0.375 | 0.402 | 0.483 | 0.403 | 0.262 | 0.396 | 0.28 | 0.287 | 0.274 | 0.746 | 0.571 | 0.519 | 0.85 | 0.581 | 0.485
NCI-H1755 | 0.96 | 0.774 | 0.782 | 0.777 | 0.736 | 0.652 | 0.702 | 0.635 | 1.13 | 0.983 | 0.976 | 0.936 | 0.978 | 0.505 | 0.418 | 0.458 | 1.01 | 0.98 | 0.995
NCI-H23 | 0.471 | 0.452 | 0.513 | 0.531 | 0.462 | 0.575 | 0.519 | 0.403 | 1.04 | 0.755 | 1.1 | 0.944 | 0.773 | 0.2 | 0.206 | 0.255 | 0.627 | 0.571 | 0.605
LOU-NH91 | 0.748 | 0.775 | 0.753 | 0.686 | 0.712 | 0.711 | 0.719 | 0.686 | 0.557 | 0.491 | 0.441 | 0.483 | 0.442 | 0.404 | 0.353 | 0.285 | 0.996 | 0.92 | 0.915
NCI-H647 | 1.52 | 1.23 | 0.906 | 0.644 | 0.608 | 0.636 | 0.84 | 0.673 | 1.13 | 0.889 | 1.04 | 0.931 | 0.751 | 0.275 | 0.19 | 0.233 | 1.31 | 1.07 | 1.16
201T | 1 | 0.902 | 1 | 0.586 | 0.729 | 0.709 | 0.779 | 0.672 | 1.11 | 1.11 | 1.07 | 1.11 | 0.934 | 1.05 | 0.887 | 0.975 | 0.996 | 0.941 | 1.04
NCI-H1993 | 0.855 | 0.686 | 0.799 | 0.6 | 0.581 | 0.507 | 0.614 | 0.543 |  | 1.11 | 1.02 | 0.887 | 0.777 | 0.874 | 0.577 | 0.721 | 0.7 | 0.721 | 0.806
EMC-BAC-2 | 0.844 | 0.731 | 0.577 | 0.306 | 0.36 | 0.358 | 0.352 | 0.315 | 1.21 | 0.912 | 1.11 | 1.06 | 1.01 | 1.28 | 1.18 | 1.17 | 0.902 | 0.846 | 0.796

Reference: the supplement of paper PMC10307832
